Assay results taken from publication PMC8546167, “Osh6 Revisited: Control of PS Transport by the Concerted Actions of PI4P and Sac1 Phosphatase” (Frontiers in Molecular Biosciences, 2021).

Molecular target: T1, Osh6 (Saccharomyces cerevisiae, UniProt Q02201)
T1 construct: recombinant in E. coli BL21 Star; N-terminal His6-GB1 tag cleaved by TEV
T1 sequence (Q02201 1-448): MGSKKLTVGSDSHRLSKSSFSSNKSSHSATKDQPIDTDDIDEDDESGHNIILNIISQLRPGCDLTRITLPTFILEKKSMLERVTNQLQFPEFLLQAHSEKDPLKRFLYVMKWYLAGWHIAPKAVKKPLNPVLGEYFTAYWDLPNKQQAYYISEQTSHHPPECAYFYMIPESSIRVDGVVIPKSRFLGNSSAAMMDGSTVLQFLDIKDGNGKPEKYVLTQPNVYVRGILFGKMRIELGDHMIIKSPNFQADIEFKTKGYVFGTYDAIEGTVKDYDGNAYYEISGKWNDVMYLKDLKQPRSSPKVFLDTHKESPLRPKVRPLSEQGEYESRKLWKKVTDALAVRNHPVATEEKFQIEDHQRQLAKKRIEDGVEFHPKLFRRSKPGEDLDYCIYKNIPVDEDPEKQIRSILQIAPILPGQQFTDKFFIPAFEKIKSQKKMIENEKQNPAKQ
Assay: FRET transport between LUVs, C2Lact-CFP biosensor and ATTO488-DOPE
Format: biochemical
Settings: 100 nM Osh6; 5 mol% POPS donor LUVs to POPC acceptor LUVs

CCCCCCCC/C=C\CCCCCCCC(=O)O[C@H](COC(=O)CCCCCCCCCCCCCCC)COP(=O)(O)OC[C@H](N)C(=O)O [PS, POPS]
FRET transport between LUVs, C2Lact-CFP biosensor and ATTO488-DOPE: Osh6 molecules pick up PS molecules from any membrane of high PS content
